Data on five molecules can be found in ChEMBL document CHEMBL3390848, “Affinity selection and sequence-activity relationships of HIV-1 membrane fusion inhibitors directed at the drug-resistant variants” (Medchemcomm, 2010).

Assay [1] concerns Human immunodeficiency virus 1. The experiment in a line: Binding affinity to HIV1 His-tagged N-terminal heptad repeat of envelope glycoprotein gp41 assessed as recovery of N36-drug complex at 0.6 uM after 2 hrs by LC-MS analysis.
Assay [2] concerns Human immunodeficiency virus 1. The assay is described as follows: Binding affinity to HIV1 His-tagged N-terminal heptad repeat of envelope glycoprotein gp41 assessed as recovery of N36-drug complex at 6 uM after 2 hrs by LC-MS analysis.
Assay [3] concerns Human immunodeficiency virus 1. The assay is described as follows: Antiviral activity against HIV1 NL4-3 harboring gp41 D36G mutant infected in human HeLa cells expressing CD4-LTR-beta-gal assessed as inhibition of viral replication after 48 hrs by MAGI assay. The format is functional, organism-based.
The subject of assay [4] is Human immunodeficiency virus 1. The assay is described as follows: Binding affinity to HIV1 His-tagged N-terminal heptad repeat of envelope glycoprotein gp41 assessed as recovery of N36-drug complex at 1 uM after 2 hrs by LC-MS analysis.
Assay [5] has as its system Human immunodeficiency virus 1. The experiment in a line: Thermal stability of HIV1 envelope glycoprotein gp41 His-tagged N-terminal heptad repeat N36-drug complex assessed as thermal unfolding transition state by measuring molar ellipticity at 4 to 90 degC by circular dichroic spectra analysis.
Assay [6] deals with Human immunodeficiency virus 1. The assay is described as follows: Binding affinity to HIV1 His-tagged N-terminal heptad repeat of envelope glycoprotein gp41 assessed as recovery of N36-drug complex at 10 uM after 2 hrs by LC-MS analysis.

pEC50: −log10 of the molar value. Residues, ends and D or L forms follow the SMILES beside them.

The term pEC50 denotes the negative decadic logarithm of the EC50, by convention in mol/L. The term Tm denotes the temperature at which the thermal transition is half complete. Turning to `CC[C@H](C)[C@H](NC(=O)[C@H](CC(C)C)NC(=O)[C@H](CCC(=O)O)NC(=O)[C@H](CCC(=O)O)NC(=O)[C@@H](NC(=O)[C@H](CCCCN)NC(=O)[C@H](CCCCN)NC(=O)[C@@H](NC(=O)[C@H](Cc1ccc(O)cc1)NC(=O)[C@H](CCC(=O)O)NC(=O)[C@H](CCC(=O)O)NC(=O)[C@@H](NC(=O)[C@H](CCCCN)NC(=O)[C@H](CCCCN)NC(=O)[C@H](CC(=O)O)NC(=O)[C@H](Cc1c[nH]c2ccccc12)NC(=O)[C@H](CCC(=O)O)NC(=O)[C@H](CCC(=O)O)NC(=O)[C@H](Cc1c[nH]c2ccccc12)NC(C)=O)[C@@H](C)CC)[C@@H](C)O)[C@@H](C)CC)C(=O)N[C@@H](CCCCN)C(=O)N[C@@H](CCCCN)C(=O)N[C@@H](CCCNC(=N)N)C(=O)N[C@@H](CCC(=O)O)C(=O)N[C@@H](CCC(=O)O)C(=O)N[C@@H](CCC(N)=O)C(=O)N[C@@H](CCC(N)=O)C(=O)N[C@@H](CCCCN)C(=O)N[C@@H](CCCCN)C(=O)N[C@@H](CC(N)=O)C(=O)N[C@@H](CCC(=O)O)C(=O)N[C@@H](CCC(=O)O)C(=O)N[C@@H](CCC(=O)O)C(=O)N[C@@H](CC(C)C)C(=O)N[C@@H](CCCCN)C(=O)N[C@@H](CCCCN)C(N)=O` (Ac-WEEWDKKIEEYTKKIEELIKKREEQQKKNEEELKK-NH2), the Activity in assay [1] was 2.5%; in assay [2] it was 0.1%; in assay [4] it was 0%; in assay [6], 0.3%. In addition, in assay [3], the pEC50 was 6.55. Further, the Tm in assay [5] was determined as 52.3 °C.
As for `CC[C@H](C)[C@H](NC(=O)[C@H](CC(C)C)NC(=O)[C@H](CCC(=O)O)NC(=O)[C@H](CCC(=O)O)NC(=O)[C@@H](NC(=O)[C@H](CCCCN)NC(=O)[C@H](CCCCN)NC(=O)[C@@H](NC(=O)[C@H](Cc1ccc(O)cc1)NC(=O)[C@H](CCC(=O)O)NC(=O)[C@H](CCC(=O)O)NC(=O)[C@@H](NC(=O)[C@H](CCCCN)NC(=O)[C@H](CCCCN)NC(=O)[C@H](CC(=O)O)NC(=O)[C@H](Cc1c[nH]c2ccccc12)NC(=O)[C@H](CCC(=O)O)NC(=O)[C@H](CCC(=O)O)NC(=O)[C@H](Cc1c[nH]c2ccccc12)NC(C)=O)[C@@H](C)CC)[C@@H](C)O)[C@@H](C)CC)C(=O)N[C@@H](CCCCN)C(=O)N[C@@H](CCCCN)C(=O)N[C@@H](CCCCN)C(=O)N[C@@H](CCC(=O)O)C(=O)N[C@@H](CCC(=O)O)C(=O)N[C@@H](CCC(N)=O)C(=O)N[C@@H](CCC(N)=O)C(=O)N[C@@H](CCCCN)C(=O)N[C@@H](CCCCN)C(=O)N[C@@H](CC(N)=O)C(=O)N[C@@H](CCC(=O)O)C(=O)N[C@@H](CCC(=O)O)C(=O)N[C@@H](CCC(=O)O)C(=O)N[C@@H](CC(C)C)C(=O)N[C@@H](CCCCN)C(=O)N[C@@H](CCCCN)C(N)=O` (Ac-WEEWDKKIEEYTKKIEELIKKKEEQQKKNEEELKK-NH2), the Activity worked out at 3.6% in assay [1], 0.1% in assay [2], 0% in assay [4] and 0.2% in assay [6]. Besides, the pEC50 in assay [3] is 8.09. Moreover, the midpoint of thermal melting (Tm) in assay [5] was found to be 53.5 °C.
For `CC[C@H](C)[C@H](NC(=O)[C@H](CC(C)C)NC(=O)[C@H](CCC(=O)O)NC(=O)[C@H](CCC(=O)O)NC(=O)[C@@H](NC(=O)[C@H](CCCCN)NC(=O)[C@H](CCCCN)NC(=O)[C@@H](NC(=O)[C@H](Cc1ccc(O)cc1)NC(=O)[C@H](CCC(=O)O)NC(=O)[C@H](CCC(=O)O)NC(=O)[C@@H](NC(=O)[C@H](CCCCN)NC(=O)[C@H](CCCCN)NC(=O)[C@H](CC(=O)O)NC(=O)[C@H](Cc1c[nH]c2ccccc12)NC(=O)[C@H](CCC(=O)O)NC(=O)[C@H](CCC(=O)O)NC(=O)[C@H](Cc1c[nH]c2ccccc12)NC(C)=O)[C@@H](C)CC)[C@@H](C)O)[C@@H](C)CC)C(=O)N[C@@H](CCCCN)C(=O)N[C@@H](CCCCN)C(=O)N[C@@H](CC(=O)O)C(=O)N[C@@H](CCC(=O)O)C(=O)N[C@@H](CCC(=O)O)C(=O)N[C@@H](CCC(N)=O)C(=O)N[C@@H](CCC(N)=O)C(=O)N[C@@H](CCCCN)C(=O)N[C@@H](CCCCN)C(=O)N[C@@H](CC(N)=O)C(=O)N[C@@H](CCC(=O)O)C(=O)N[C@@H](CCC(=O)O)C(=O)N[C@@H](CCC(=O)O)C(=O)N[C@@H](CC(C)C)C(=O)N[C@@H](CCCCN)C(=O)N[C@@H](CCCCN)C(N)=O` (Ac-WEEWDKKIEEYTKKIEELIKKDEEQQKKNEEELKK-NH2), the Activity is 4.3% in assay [1], 0% in assay [2], 0% in assay [4] and 0.7% in assay [6]. Besides, the pEC50 in assay [3] was 7.82. Besides, in assay [5], the Tm amounted to 59.7 °C.
As for `CC[C@H](C)[C@H](NC(=O)[C@H](CC(C)C)NC(=O)[C@H](CCC(=O)O)NC(=O)[C@H](CCC(=O)O)NC(=O)[C@@H](NC(=O)[C@H](CCCCN)NC(=O)[C@H](CCCCN)NC(=O)[C@@H](NC(=O)[C@H](Cc1ccc(O)cc1)NC(=O)[C@H](CCC(=O)O)NC(=O)[C@H](CCC(=O)O)NC(=O)[C@@H](NC(=O)[C@H](CCCCN)NC(=O)[C@H](CCCCN)NC(=O)[C@H](CC(=O)O)NC(=O)[C@H](Cc1c[nH]c2ccccc12)NC(=O)[C@H](CCC(=O)O)NC(=O)[C@H](CCC(=O)O)NC(=O)[C@H](Cc1c[nH]c2ccccc12)NC(C)=O)[C@@H](C)CC)[C@@H](C)O)[C@@H](C)CC)C(=O)N[C@@H](CCCCN)C(=O)N[C@@H](CCCCN)C(=O)N[C@@H](CC(N)=O)C(=O)N[C@@H](CCC(=O)O)C(=O)N[C@@H](CCC(=O)O)C(=O)N[C@@H](CCC(N)=O)C(=O)N[C@@H](CCC(N)=O)C(=O)N[C@@H](CCCCN)C(=O)N[C@@H](CCCCN)C(=O)N[C@@H](CC(N)=O)C(=O)N[C@@H](CCC(=O)O)C(=O)N[C@@H](CCC(=O)O)C(=O)N[C@@H](CCC(=O)O)C(=O)N[C@@H](CC(C)C)C(=O)N[C@@H](CCCCN)C(=O)N[C@@H](CCCCN)C(N)=O` (Ac-WEEWDKKIEEYTKKIEELIKKNEEQQKKNEEELKK-NH2), the Activity came to 6.4% in assay [1], 0.5% in assay [2], 4.3% in assay [4] and 1.1% in assay [6]. The pEC50 in assay [3] is 8.66. In addition, the Tm in assay [5] turned out to be 69 °C.
Turning to `CC[C@H](C)[C@H](NC(=O)[C@H](CC(C)C)NC(=O)[C@H](CCC(=O)O)NC(=O)[C@H](CCC(=O)O)NC(=O)[C@@H](NC(=O)[C@H](CCCCN)NC(=O)[C@H](CCCCN)NC(=O)[C@@H](NC(=O)[C@H](Cc1ccc(O)cc1)NC(=O)[C@H](CCC(=O)O)NC(=O)[C@H](CCC(=O)O)NC(=O)[C@@H](NC(=O)[C@H](CCCCN)NC(=O)[C@H](CCCCN)NC(=O)[C@H](CC(=O)O)NC(=O)[C@H](Cc1c[nH]c2ccccc12)NC(=O)[C@H](CCC(=O)O)NC(=O)[C@H](CCC(=O)O)NC(=O)[C@H](Cc1c[nH]c2ccccc12)NC(C)=O)[C@@H](C)CC)[C@@H](C)O)[C@@H](C)CC)C(=O)N[C@@H](CCCCN)C(=O)N[C@@H](CCCCN)C(=O)NCC(=O)N[C@@H](CCC(=O)O)C(=O)N[C@@H](CCC(=O)O)C(=O)N[C@@H](CCC(N)=O)C(=O)N[C@@H](CCC(N)=O)C(=O)N[C@@H](CCCCN)C(=O)N[C@@H](CCCCN)C(=O)N[C@@H](CC(N)=O)C(=O)N[C@@H](CCC(=O)O)C(=O)N[C@@H](CCC(=O)O)C(=O)N[C@@H](CCC(=O)O)C(=O)N[C@@H](CC(C)C)C(=O)N[C@@H](CCCCN)C(=O)N[C@@H](CCCCN)C(N)=O` (Ac-WEEWDKKIEEYTKKIEELIKKGEEQQKKNEEELKK-NH2), the Activity in assay [1] came to 5.9%; in assay [2] it was 14.4%; in assay [4] it was 11.6%; in assay [6], 13.8%. Besides, in assay [3], the pEC50 is 8.72. Moreover, the Tm in assay [5] came to 79.1 °C.
